Experimental data reported in patent US20200405696A1, “INHIBITORS OF INDOLEAMINE 2,3-DIOXYGENASE AND/OR TRYPTOPHAN 2,3-DIOXYGENASE” (IDORSIA PHARMACEUTICALS LTD, priority 2018, published 2020).

Columns and labels:
[1] = biological target: T1, Recombinant human TDO comprising amino acids 19-407 (Homo sapiens, UniProt P48775); assay: TDO2 enzymatic assay (NFK quantified by LCMS); assay type: biochemical; details: 15 nM enzyme, 200 μM L-tryptophan, pH7, 30 minutes pre-incubation at RT; mean values when measured multiple times; read-out: hTDO activity (IC50 in nM)
T1 construct: Recombinant human TDO comprising amino acids 19-407 with a N-terminal hexahistidine tag; hexahistidine (His6) (N); made in house; host or cells: E. coli
How it was run: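 NFK formed over 30 min at RT from 200 μM L-tryptophan was measured by LCMS, normalized to d5-tryptophan, after compound (0.5 nM–10 μM, duplicates, 0.6% DMSO) was preincubated 30 min with 15 nM recombinant His-tagged TDO 19-407 in phosphate buffer pH 7. IC50 from four-parameter logistic fit; repeats averaged.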

[2] = biological target: T2, Recombinant full-length human IDO1 (Homo sapiens, UniProt P14902); assay: IDO1 enzymatic assay (NFK quantified by LCMS); assay type: biochemical; details: 2 nM enzyme, 5 μM L-tryptophan, pH6.5, 30 minutes pre-incubation at RT; mean values when measured multiple times; read-out: hIDO activity (IC50 in nM)
T2 construct: Recombinant full-length human IDO1 with a N-terminal hexahistidine tag; hexahistidine (His6) (N); made in house; host or cells: E. coli
How it was run: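 IC50 comes from four-parameter logistic fits of duplicate data, with NFK quantified by LCMS and normalized to L-Trp-(indole-d5). Compound (0.5 nM–10 μM) was preincubated 30 min at RT with 2 nM E. coli-expressed IDO1 before a 30 min reaction with 5 μM tryptophan in pH 6.5 buffer containing ascorbate and methylene blue.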

T2 sequence (P14902 whole entry): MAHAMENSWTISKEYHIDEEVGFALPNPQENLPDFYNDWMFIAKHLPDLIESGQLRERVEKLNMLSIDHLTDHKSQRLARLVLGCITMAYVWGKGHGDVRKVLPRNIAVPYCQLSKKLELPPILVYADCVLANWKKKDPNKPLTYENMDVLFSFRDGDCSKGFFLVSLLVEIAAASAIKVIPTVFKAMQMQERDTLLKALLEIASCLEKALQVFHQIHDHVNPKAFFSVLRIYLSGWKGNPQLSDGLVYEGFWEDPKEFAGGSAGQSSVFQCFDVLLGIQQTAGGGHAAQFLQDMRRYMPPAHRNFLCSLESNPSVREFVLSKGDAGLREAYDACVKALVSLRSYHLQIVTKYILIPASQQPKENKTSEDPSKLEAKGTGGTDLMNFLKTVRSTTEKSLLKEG
T1 sequence (P48775 19-406 limits assumed): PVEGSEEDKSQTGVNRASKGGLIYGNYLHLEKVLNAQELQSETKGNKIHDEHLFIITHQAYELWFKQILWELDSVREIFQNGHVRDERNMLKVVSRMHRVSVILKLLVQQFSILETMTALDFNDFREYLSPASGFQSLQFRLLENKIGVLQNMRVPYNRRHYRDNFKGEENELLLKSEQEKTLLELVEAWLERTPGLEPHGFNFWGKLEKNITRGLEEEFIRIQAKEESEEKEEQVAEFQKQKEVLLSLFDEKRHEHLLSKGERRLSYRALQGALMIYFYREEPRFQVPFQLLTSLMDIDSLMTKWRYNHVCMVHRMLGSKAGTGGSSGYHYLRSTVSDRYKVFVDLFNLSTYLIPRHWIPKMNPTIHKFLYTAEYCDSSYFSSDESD

SMILES	IC50 [1]	IC50 [2]
COc1ccc(-n2cc(C(O)c3c(C)sc4cncn34)nn2)cc1 (racemic) [Example 261, rac-[1-(4-Methoxy-phenyl)-1H-[1,2,3]triazol-4-yl]-(2-methyl-imidazo[5,1-b]thiazol-3-yl)-methanol]	> 10200 nM	51.7 nM
COc1ccc(-n2cc(C(O)c3c(C=C(C)C)sc4cncn34)nn2)cc1 (racemic) [Example 262, rac-[1-(4-Methoxy-phenyl)-1H-[1,2,3]triazol-4-yl]-[2-(2-methyl-propenyl)-imidazo[5,1-b]thiazol-3-yl]-methanol]	> 10200 nM	83.2 nM
CC=Cc1sc2cncn2c1C(O)c1cn(-c2ccc(OC)cc2)nn1 (racemic) [Example 263, rac-[1-(4-Methoxy-phenyl)-1H-[1,2,3]triazol-4-yl]-[((E)-2-(prop-1-enyl))-imidazo[5,1-b]thiazol-3-yl]-methanol]	830 nM	20.5 nM
Oc1ccc(-n2cc(C(O)c3c(-c4ccccc4)sc4cncn34)nn2)cc1Cl (racemic) [Example 264, rac-2-Chloro-4-{4-[hydroxy-(2-phenyl-imidazo[5,1-b]thiazol-3-yl)-methyl]-[1,2,3]triazol-1-yl}-phenol]	5890 nM	93.9 nM
OC(c1cn(-c2ccc(OCC3CC3)c(Cl)c2)nn1)c1c(-c2ccccc2)sc2cncn12 (racemic) [Example 265, rac-[1-(3-Chloro-4-cyclopropylmethoxy-phenyl)-1H-[1,2,3]triazol-4-yl]-(2-phenyl-imidazo[5,1-b]thiazol-3-yl)-methanol]	> 10200 nM	442 nM
OC(c1cn(-c2ccc(OCC3(F)COC3)c(Cl)c2)nn1)c1c(-c2ccccc2)sc2cncn12 (racemic) [Example 266, rac-{1-[3-Chloro-4-(3-fluoro-oxetan-3-ylmethoxy)-phenyl]-1H-[1,2,3]triazol-4-yl}-(2-phenyl-imidazo[5,1-b]thiazol-3-yl)-methanol]	> 10200 nM	179 nM
OCCCOc1ccc(-n2cc(C(O)c3c(-c4ccccc4)sc4cncn34)nn2)cc1Cl (racemic) [Example 267, rac-3-(2-Chloro-4-{4-[hydroxy-(2-phenyl-imidazo[5,1-b]thiazol-3-yl)-methyl]-[1,2,3]triazol-1-yl}-phenoxy)-propan-1-ol]	> 10200 nM	122 nM
CC(C)(O)CCOc1ccc(-n2cc(C(O)c3c(-c4ccccc4)sc4cncn34)nn2)cc1Cl (racemic) [Example 268, rac-4-(2-Chloro-4-{4-[hydroxy-(2-phenyl-imidazo[5,1-b]thiazol-3-yl)-methyl]-[1,2,3]triazol-1-yl}-phenoxy)-2-methyl-butan-2-ol]	> 10200 nM	210 nM
C=C(C)c1sc2cncn2c1C(O)c1cn(-c2ccc(OC)cc2)nn1 (racemic) [Example 269, rac-(2-Isopropenyl-imidazo[5,1-b]thiazol-3-yl)-[1-(4-methoxy-phenyl)-1H-[1,2,3]triazol-4-yl]-methanol]	> 10200 nM	7.26 nM
COc1ccc(-n2cc(C(O)c3c(/C=C/C4CC4)sc4cncn34)nn2)cc1 (racemic) [Example 270, rac-[2-((E)-2-Cyclopropyl-vinyl)-imidazo[5,1-b]thiazol-3-yl]-[1-(4-methoxy-phenyl)-1H-[1,2,3]triazol-4-yl]-methanol]	> 10200 nM	71.5 nM
CCCC=Cc1sc2cncn2c1C(O)c1cn(-c2ccc(OC)cc2)nn1 (racemic) [Example 271, rac-[1-(4-Methoxy-phenyl)-1H-[1,2,3]triazol-4-yl]-[((E)-2-(pent-1-enyl))-imidazo[5,1-b]thiazol-3-yl]-methanol]	> 10200 nM	225 nM
CCc1sc2cncn2c1C(O)c1cn(-c2ccc(N)c(Cl)c2)nn1 (racemic) [Example 272, rac-[1-(4-Amino-3-chloro-phenyl)-1H-[1,2,3]triazol-4-yl]-(2-ethyl-imidazo[5,1-b]thiazol-3-yl)-methanol]	3840 nM	4.44 nM
COc1ccc(-n2cc(C(O)c3c(-c4cnn(C)c4)sc4cncn34)nn2)cc1 (racemic) [Example 273, rac-[1-(4-Methoxy-phenyl)-1H-[1,2,3]triazol-4-yl]-[2-(1-methyl-1H-pyrazol-4-yl)-imidazo[5,1-b]thiazol-3-yl]-methanol]	> 10200 nM	43.6 nM
COc1ccc(-n2nnc(C(O)c3c(C4CC4)sc4cncn34)c2C(C)(C)C)cc1 (racemic) [Example 274, rac-[5-tert-Butyl-1-(4-methoxy-phenyl)-1H-[1,2,3]triazol-4-yl]-(2-cyclopropyl-imidazo[5,1-b]thiazol-3-yl)-methanol]	> 10200 nM	36 nM
Nc1ccc(-n2cc(C(O)c3c(C4CC4)sc4cncn34)nn2)cc1Cl (racemic) [Example 278, rac-[1-(4-Amino-3-chloro-phenyl)-1H-[1,2,3]triazol-4-yl]-(2-cyclopropyl-imidazo[5,1-b]thiazol-3-yl)-methanol]	> 10200 nM	8.71 nM
CCc1c(C(O)c2c(C3CC3)sc3cncn23)nnn1-c1ccc(OC)cc1 (racemic) [Example 279, rac-(2-Cyclopropyl-imidazo[5,1-b]thiazol-3-yl)-[5-ethyl-1-(4-methoxy-phenyl)-1H-[1,2,3]triazol-4-yl]-methanol]	> 10200 nM	13.6 nM
COc1ccc(-n2nnc(C(O)c3c(C4CC4)sc4cncn34)c2C(C)C)cc1 (racemic) [Example 280, rac-(2-Cyclopropyl-imidazo[5,1-b]thiazol-3-yl)-[5-isopropyl-1-(4-methoxy-phenyl)-1H-[1,2,3]triazol-4-yl]-methanol]	> 10200 nM	53.2 nM
COc1ccc(-n2nnc(C(O)c3c(C4CC4)sc4cncn34)c2C2CC2)cc1 (racemic) [Example 281, rac-(2-Cyclopropyl-imidazo[5,1-b]thiazol-3-yl)-[5-cyclopropyl-1-(4-methoxy-phenyl)-1H-[1,2,3]triazol-4-yl]-methanol]	9020 nM	13.7 nM
CC(C)C(=O)Nc1ccc(-n2cc(C(O)c3c(C4CC4)sc4cncn34)nn2)cc1Cl (racemic) [Example 284, rac-N-(2-Chloro-4-{4-[(2-cyclopropyl-imidazo[5,1-b]thiazol-3-yl)-hydroxy-methyl]-[1,2,3]triazol-1-yl}-phenyl)-isobutyramide]	> 10200 nM	273 nM
CCc1sc2cncn2c1C(O)c1cn(-c2ccc(OC)cc2)nn1 (racemic) [Example 285, rac-(2-Ethyl-imidazo[5,1-b]thiazol-3-yl)-[1-(4-methoxy-phenyl)-1H-[1,2,3]triazol-4-yl]-methanol]	6470 nM	7.91 nM
COc1ccc(-n2cc(C(O)c3c(-c4ccc(F)cc4)sc4cncn34)nn2)cc1 (racemic) [Example 286, rac-[2-(4-Fluoro-phenyl)-imidazo[5,1-b]thiazol-3-yl]-[1-(4-methoxy-phenyl)-1H-[1,2,3]triazol-4-yl]-methanol]	> 10200 nM	704 nM
COc1ccc(-n2cc(C(O)c3c(-c4ccccc4F)sc4cncn34)nn2)cc1 (racemic) [Example 287, rac-[2-(2-Fluoro-phenyl)-imidazo[5,1-b]thiazol-3-yl]-[1-(4-methoxy-phenyl)-1H-[1,2,3]triazol-4-yl]-methanol]	8670 nM	88.8 nM
